Patent publication US11661437B2, “Steroid derivative regulators, method for preparing the same, and uses thereof” (priority 2018, dated 2023)

How the values were obtained:
ICR mice = assay: In vivo pharmacodynamic test in the forced swimming model in mice; conditions: for immobility time during the latter four minutes compared with that of the model group: 10 mg/kg p.o.; for Mean (immobility, %) / Mean (immobility, s): 10 mpk p.o.; for Mean (immobility, %): floating time percentage = 100*floating time/240 s; for Mean (immobility, s): latter four minutes of 6 min swim
Experimental: The antidepressant effect of the compound was evaluated by the forced swimming model in mice.
Male ICR mice (25-35 g) were adapted in the test environment for 3 days before the forced swimming test.
According to the test design, the mice were randomly grouped on the day before the test according to body weight, with 12 mice in each group. Before the test, the compounds of each example were administrated intragastrically according to the Tmax thereof in the brain in mice pharmacokinetic test as follows:
1) Model group (0.5% CMC-Na+1% Tween 80 solution, p.o., 10 mL/kg);
2) Compounds of Example 2, Example 5, Example 7, Example 18, Example 23, Example 26 and Example 50 (10 mg/kg, p.o., 10 mL/kg).
When being administrated, the compounds of each example were suspended in 0.5% CMC-Na-1% Tween 80 solution to the desired concentration.
0.5-1 hour after administration, ICR mice were placed in a forced swimming device (transparent glass drum (water depth 18 cm, water temperature 25-26° C.), one mouse per tank) and forced to swim for 6 minutes. The forced swimming device recorded the floating time of the ICR mice during the entire 6 minutes, and the data of the latter four minutes were used for data analysis. The mice were taken out immediately after the swimming test, wiped dry and put back in their original cages.
Note: The criterion for determining the immobility time is that the mouse stops struggling in water and floats, and there are only slight limb movements to keep the head floating on the water.
3.4 Data Analysis Floating time percentage=100*floating time/240 s.

CD-1 mice = assay: In vivo pharmacodynamic test in the PTZ-induced epilepsy model in mice; conditions: 3 mpk p.o., PTZ 120 mg/kg s.c., 30 min observation
Experimental: The PTZ-induced epilepsy model in CD-1 mice was established, and the antiepileptic effect of the compounds of Example 5 and Example 23 was evaluated using this model.
30 male CD-1 mice were purchased from Beijing Vital River Laboratory Animal Technology Co. Ltd. The test animals were adapted at the animal room in the third building of Shanghai ChemPartner Co., Ltd for 7 days before the test. The average body weight of the animals on the test day was 32.2±0.2 grams. Feeding environment: 5 animals/cage, room temperature 23±2° C., 12/12 hours of light and dark cycle, free access to food and water.
1) Vehicle/PTZ: 0.5% CMC-Na+1% Tween-80 (10 ml/kg, p.o.), administrated 0.5 hr before the PTZ administration; PTZ ([…], s.c.), administrated before the test;
2) 3 mg/kg of the compounds of Examples/PTZ: the compounds of Example 5 and Example 23 (3 mg/kg, 10 ml/kg, p.o.), administrated 0.5 hr before the PTZ administration; PTZ ([…], s.c.), administrated before the test.
3) The compounds of Example 5 and Example 23 were administrated respectively 1 hour before the PTZ administration, or 0.5% CMC-NA+1% Tween-80, the compounds of Example 5 and Example 23 were administrated respectively 0.5 hour before the PTZ administration;
4) PTZ (120 mg/kg) was administrated subcutaneously before the test observation, and this time point was recorded as the observation start point;
6) The possible side effects induced by the drug after the administration were observed and recorded, which can be divided into four levels: • None: normal • Mild sedation • Moderate sedation • Severe sedation
The mice were randomly grouped, marked and weighed; 10 mice per group. The test compound was administrated orally at an administration volume of 10 mL/kg 30-60 minutes before the PTZ administration.
PTZ (120 mg/kg) was administrated subcutaneously before the test observation, and this time point was recorded as the observation start point; after the administration of PTZ, the animal was immediately placed in the observation box and observed for 30 minutes, and the followings were recorded: a) the incubation period of the first clonic seizure, b) the incubation period of the first generalized tonic seizure, c) the number of clonic seizures, d) the number of generalized tonic seizures, e) the time when the animal died.
All measurement data were expressed as Mean±SEM, and analysed with Prism 6.0 statistical software.

Compound	immobility time during the latter four minutes compared with that of the model group (ICR mice)	Mean (immobility, %) (ICR mice)	Mean (immobility, s) (ICR mice)	Incubation period of the clonic seizure Mean ± SEM (CD-1 mice)	Incubation period of the generalized tonic seizure Mean (CD-1 mice)	Mortality rate (CD-1 mice)	Number of clonic seizures Mean (CD-1 mice)	Number of generalized tonic seizures Mean (CD-1 mice)	Time when the animal died Mean (CD-1 mice)
C[C@@]1(O)CC[C@@]2(F)[C@H](CC[C@H]3[C@@H]4CC[C@H](C(=O)Cn5cc(C#N)cn5)[C@@]4(C)CC[C@@H]32)C1 [Example 2, 1-(2-((3R,5R,8S,9S,10R,13S,14S,17S)-10-Fluoro-3-hydroxy-3,13-dimethylhexadecahydro-1H-cyclopenta[a]phenanthren-17-yl)-2-oxoethyl)-1H-pyrazole-4-carbonitrile]	significantly different	36.39%	87.34 s	–	–	–	–	–	–
C[C@@]1(O)CC[C@@]2(F)[C@H](CC[C@H]3[C@@H]4CC[C@H](C(=O)Cn5ccc(C(F)(F)F)n5)[C@@]4(C)CC[C@@H]32)C1 [Example 5, 1-((3R,5R,8S,9S,10R,13S,14S,17S)-10-Fluoro-3-hydroxy-3,13-dimethylhexadecahydro-1H-cyclopenta[a]phenanthren-17-yl)-2-(3-(trifluoromethyl)-1H-pyrazol-1-yl)ethan-1-one]	very significantly different	27.11%	65.07 s	644.5 ± 122.0 s	1576.7 ± 108.8 s	40%	1.8 ± 0.3	0.4 ± 0.2	1623.0 ± 105.5 s
C[C@@]1(O)CC[C@@]2(F)[C@H](CC[C@H]3[C@@H]4CC[C@H](C(=O)CNc5ccc(F)cc5)[C@@]4(C)CC[C@@H]32)C1 [Example 23, 1-((3R,5R,8S,9S,10R,13S,14S,17S)-10-Fluoro-3-hydroxy-3,13-dimethylhexadecahydro-1H-cyclopenta[a]phenanthren-17-yl)-2-((4-fluorophenyl)amino)ethan-1-one]	very significantly different	28.55%	68.51 s	366.5 ± 21.1 s	1519.9 ± 117.9 s	40%	1.8 ± 0.2	0.4 ± 0.2	1527.7 ± 114.6 s
